Results reported in patent US7189761B2, “Nitric oxide donor composition and method for treatment of anal disorders” (priority 1994, dated 2007).
Where two headings read alike, the source gives them in different places. Ends that are not written are not given here.

Experiments:
[1] = system: smooth muscle strips of the internal anal sphincter (IAS); conditions: cited from earlier work
anal fissure = test: Case reports: topical ointment in patients with anal fissure; type: in vivo, human; conditions: person, superficial posterior midline anal fissure, patient history
Description: The patient rated their pre-treatment pain 7/10. The patient applied approximately 500 mg of the ointment as prepared in Example 1, three times daily and after bowel movements. The patient reported that their pain was gone following initial application.
The patient rated their pre-treatment pain 7/10. The patient applied approximately 500 mg of the ointment as prepared in Example 1, three times daily and after bowel movements. […] After three weeks of treatment, the fissure was healed, and the pain was gone.
They had previously failed a course of hydrocortisone therapy. Pre-treatment pain was rated 9/10. The patient was treated with approximately 500 mg of the preparation of Example 1, three times daily and after bowel movements. After one week of treatment, the fissure was still present, and pain was rated 8/10. The patient was then treated with approximately 500 mg of the preparation of Example 2, three times daily and after bowel movements. Following one week of therapy with the ointment as of Example 2, the patient reported no pain and no bleeding.
Pre-treatment pain was rated 4/10. The patient was treated with the ointment as of Example 2, approximately 500 mg three times daily and after bowel movements. Following one week of therapy, the patient reported that their pain had diminished, and it was rated 2/10. […]

[2] = system: internal anal sphincter (IAS); conditions: cited from earlier work; for effect on the decrease in IAS resting pressures in response to the rectoanal reflex: reflex mimicked by rectal balloon distention; for reversal of the L-NNA suppression of rectoanal reflex-induced IAS relaxation: in vivo
[3] = system: human internal anal sphincter muscle strips; conditions: cited from earlier work; for effect on relaxations produced by transmural field stimulation: in the presence of atropine and guanethidine
[4] = isolated IAS smooth muscle strips
[5] = response to lower frequencies of EFS and DMPP

vasoactive intestinal polypeptide: vasoactive intestinal polypeptide (HSDAVFTDNYTRLRKQMAVKKYLNSILN; ends and bridges not checked; UniProt P01282 125-152, looked up)
IAS relaxation and release of NO [1, 4]: release of NO

C[C@]12CCC(=O)C=C1CC[C@@H]1[C@@H]2[C@@H](O)C[C@@]2(C)[C@H]1CC[C@]2(O)C(=O)CO [hydrocortisone, 11-17-21-trihydroxypregn-4-ene-3,20-dione]
outcome of previous course of therapy (anal fissure): failed

CC(C)NCC(O)c1ccc(O)c(O)c1 (centres unmarked) [isoproterenol]
effect on the resting pressure of the IAS ([2]; not modified by L-NNA): decrease
IAS relaxation and release of NO [1, 4]: caused IAS relaxation without any increase in NO release

NC1=N[C@H](O)[C@H]2[C@H]3O[C@]4(O)O[C@@H]([C@@H](O)[C@@]2(N1)[C@@H]4O)[C@]3(O)CO [tetrodotoxin]
effect of pretreatment on NO release and fall in IAS resting tension [1]: abolished

atrial natriuretic factor
IAS relaxation and release of NO [1, 4]: caused IAS relaxation without any increase in NO release

C[N+]1(C)CCN(c2ccccc2)CC1 [DMPP, 1,1-dimethyl-4-phenylpiperazinium]
IAS relaxation and release of NO [1]: caused IAS relaxation with an accompanying release of NO

oxyhaemoglobin
effect on relaxations produced by transmural field stimulation [3]: abolished

NC(=NCCC[C@@H](N)C(=O)O)N[N+](=O)[O-] [D-NNA]
effect on the decrease in IAS resting pressures in response to the rectoanal reflex [2]: no effect
effect of pretreatment on NO release and fall in IAS resting tension [1, 5]: no significant effect

N=C(NCCC[C@H](N)C(=O)O)N[N+](=O)[O-] [L-NNA, L-NG-nitro-arginine]
effect on the decrease in IAS resting pressures in response to the rectoanal reflex [2]: significant dose-dependent suppression
effect on NO release caused by vasoactive intestinal polypeptide ([1]; IAS smooth muscle strips): abolished
effect of pretreatment on NO release and fall in IAS resting tension [1, 5]: abolished
effect on relaxations produced by transmural field stimulation [3]: completely

N=C(N)NCCC[C@H](N)C(=O)O [L-arginine]
reversal of the L-NNA suppression of rectoanal reflex-induced IAS relaxation [2]: completely reversed
reversal of the loss of NO release and IAS relaxation [1]: reversed to control levels
reversal of the inhibitory effects of NO synthase antagonists [3]: reversed

N=C(N)NCCC[C@@H](N)C(=O)O [D-arginine]
reversal of the L-NNA suppression of rectoanal reflex-induced IAS relaxation [2]: failed to reverse
reversal of the loss of NO release and IAS relaxation [1]: no significant effect
reversal of the inhibitory effects of NO synthase antagonists [3]: did not reverse
